The numbers were not newly measured in paper PMC7575488, “Phase 1 dose-escalation study of a novel oral PI3K/mTOR dual inhibitor, LY3023414, in patients with cancer” (Investigational New Drugs, 2020), which cites them from elsewhere.

The structures appear in SMILES notation.

For the series the following is noted: cited from earlier work; for Stomatitis, mucositis, and mouth sores: clinical studies with mTOR inhibitors.

Turning to `CO[C@H]1C[C@@H]2CC[C@@H](C)[C@@](O)(O2)C(=O)C(=O)N2CCCC[C@H]2C(=O)O[C@H]([C@H](C)C[C@@H]2CC[C@@H](OCCO)[C@H](OC)C2)CC(=O)[C@H](C)/C=C(\C)[C@@H](O)[C@@H](OC)C(=O)[C@H](C)C[C@H](C)/C=C/C=C/C=C/1C` [everolimus], the “Stomatitis, mucositis, and mouth sores” value is 41%. The “Incidence of ILD” value (Japan, ref interim report on surveillance of everolimus-induced ILD in Japan) is recorded as 17.4%.

For `CO[C@H]1C[C@@H]2CC[C@@H](C)[C@@](O)(O2)C(=O)C(=O)N2CCCC[C@H]2C(=O)O[C@H]([C@H](C)C[C@@H]2CC[C@@H](OP(C)(C)=O)[C@H](OC)C2)CC(=O)[C@H](C)/C=C(\C)[C@@H](O)[C@@H](OC)C(=O)[C@H](C)C[C@H](C)/C=C/C=C/C=C/1C` [deforolimus], the “Stomatitis, mucositis, and mouth sores” value is given as 78%.
